How the values were obtained:
[1] = test system: Toll-like receptor expressing cells; conditions: cited from earlier work
TLR3 = target: T1, TLR3 (Mus musculus, UniProt Q99MB1); assay: TLR multiplex sensor, EIS film resistance before/after exposure (Example 5), TLR3 sensor; format: binding; conditions: exposure 20 minutes
T1 sequence (Q99MB1 26-905): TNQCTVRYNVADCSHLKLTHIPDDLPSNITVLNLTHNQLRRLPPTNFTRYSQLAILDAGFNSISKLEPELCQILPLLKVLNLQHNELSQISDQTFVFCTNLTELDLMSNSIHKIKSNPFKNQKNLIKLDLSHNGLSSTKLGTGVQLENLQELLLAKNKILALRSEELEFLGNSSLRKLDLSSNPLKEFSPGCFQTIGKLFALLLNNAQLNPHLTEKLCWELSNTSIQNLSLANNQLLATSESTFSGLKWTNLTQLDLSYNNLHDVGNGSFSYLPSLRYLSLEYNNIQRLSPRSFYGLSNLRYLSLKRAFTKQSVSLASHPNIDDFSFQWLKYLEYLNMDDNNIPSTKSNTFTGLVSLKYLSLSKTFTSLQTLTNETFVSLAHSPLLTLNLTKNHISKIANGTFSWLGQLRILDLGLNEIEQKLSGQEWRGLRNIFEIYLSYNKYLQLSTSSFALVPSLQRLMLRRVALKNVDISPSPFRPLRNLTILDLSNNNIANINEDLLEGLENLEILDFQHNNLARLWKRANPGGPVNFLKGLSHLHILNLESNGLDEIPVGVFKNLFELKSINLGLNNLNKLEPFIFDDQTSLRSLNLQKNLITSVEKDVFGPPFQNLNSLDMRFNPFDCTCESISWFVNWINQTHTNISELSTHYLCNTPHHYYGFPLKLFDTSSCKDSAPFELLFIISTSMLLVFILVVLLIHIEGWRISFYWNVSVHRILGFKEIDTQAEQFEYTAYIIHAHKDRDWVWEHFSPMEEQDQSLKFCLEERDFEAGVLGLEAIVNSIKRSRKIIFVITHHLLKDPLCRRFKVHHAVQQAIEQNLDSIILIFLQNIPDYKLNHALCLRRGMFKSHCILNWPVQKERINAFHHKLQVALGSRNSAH
Procedure: For each multiplex TLR sensor, 5 separate gold electrodes were used for binding TLR 1 to 5. The 5 modified electrodes/sensors were exposed to the analyte solution and evaluated one by one using potentiostats and electrochemical cells.
The preparation of each TLR biosensor was evaluated using EIS. It is understood that cyclic voltammetry as well as electrochemical impedance microscopy can also be used for monitoring the modification. […] Ethanolamine was then applied to deactivate unreacted LPA. Due to dissociation of unspecific absorbed TLR, the Rct dropped slightly. Experimental curves were evaluated using a model to obtain the Rct values, which can be seen at FIG. 9. Measurements from at least triplicated samples prepared were used to obtain statistic information.
The TLR1 sensor was exposed to an E. coli K12 whole-cell buffer solution for 20 minutes. The sensor was then removed, washed thoroughly and characterized in the electrochemical cell measuring the Rct again. The difference in Rct before and after exposure is the response triggered by the target. The same protocol was carried out for all remaining TLRs (TLRs 2-5) to obtain one set of pattern for E. coli K12 (FIGS. 10b to 10e). Multiple sets were investigated for statistical relevance. […]

rmTLR5 = target: T2, rmTLR5 (Mus musculus, UniProt Q9JLF7); assay: Selectivity test, TLR5 sensor, EIS; format: binding; conditions: 10 μM
T2 construct: purchased
Procedure: TLR sensors were prepared using fresh, cleaned gold electrodes. The electrodes were immersed in a 2 mM 1-lipoic acid n-hydroxysuccinimide ester (LPA) ethanol solution for 48 hours at 277 K. The electrodes were then rinsed thoroughly using absolute ethanol and blown dry under nitrogen before incubation in 200 μg/ml rmTLR1, 200 μg/ml rmTLR2 and 200 μg/ml ‘rmTLR1 and 2’ mixture for 72 hours at 277 K. The rmTLR1 and 2 mixture was prepared by mixing 200 μg/ml rmTLR1 and 200 μg/ml rmTLR2 with a volume ratio of 1:1. The final concentration of each component was 100 μg/ml and the total concentration of the combined TLR protein content was 200 μg/ml. Following the supplier's recommended conditions, all TLRs were prepared in PBS buffer (pH˜7.4). The electrodes were rinsed with an excess volume of Milli-Q water and blown dry under nitrogen. An ethanolamine-tris buffer solution was prepared by dissolving 1.2 g of ethanolamine and 0.121 g of Tris base in 20 mL of water, the pH was adjusted to 8.4 using hydrochloric acid. […]
All electrochemical measurements were carried out using a cell with a three-electrode configuration in an enclosed Faraday cage. […] The experimental EIS curves were evaluated to determine the film resistance using ZSimpWin 2.0 software. […]

T2 sequence (Q9JLF7 27-859): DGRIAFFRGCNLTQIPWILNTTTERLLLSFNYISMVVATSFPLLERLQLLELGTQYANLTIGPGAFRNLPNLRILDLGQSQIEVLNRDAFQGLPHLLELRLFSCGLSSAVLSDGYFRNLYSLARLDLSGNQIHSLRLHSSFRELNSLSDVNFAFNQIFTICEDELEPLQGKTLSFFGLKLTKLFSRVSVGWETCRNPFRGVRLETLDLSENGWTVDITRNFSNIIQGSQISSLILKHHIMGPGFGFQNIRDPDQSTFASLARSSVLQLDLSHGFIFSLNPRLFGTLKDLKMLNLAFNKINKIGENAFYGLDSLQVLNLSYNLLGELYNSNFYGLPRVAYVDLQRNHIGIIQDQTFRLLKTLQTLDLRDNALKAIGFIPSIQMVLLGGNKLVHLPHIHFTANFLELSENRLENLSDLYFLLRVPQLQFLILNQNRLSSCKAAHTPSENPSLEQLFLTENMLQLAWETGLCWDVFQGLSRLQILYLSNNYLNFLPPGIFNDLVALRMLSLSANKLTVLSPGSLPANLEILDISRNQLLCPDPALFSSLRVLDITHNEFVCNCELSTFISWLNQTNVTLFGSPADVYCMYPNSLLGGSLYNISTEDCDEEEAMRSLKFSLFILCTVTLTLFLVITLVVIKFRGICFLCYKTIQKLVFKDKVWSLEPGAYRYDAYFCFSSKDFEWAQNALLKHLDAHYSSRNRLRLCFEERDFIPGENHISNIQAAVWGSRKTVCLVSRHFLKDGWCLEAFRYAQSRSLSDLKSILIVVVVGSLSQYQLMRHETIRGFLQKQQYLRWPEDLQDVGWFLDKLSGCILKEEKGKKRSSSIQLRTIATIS

## Pam3CSK4
[1]
  detection (lowest level previously reported): 2 µg/mL
TLR3
  delta Rct %: limited responses
rmTLR5
  electrochemical response (selectivity test): slight signal variations

Reference: US10794932B2, “Biosensor for the detection of a biological target, and method for manufacturing the same” (The Governing Council of The University of Toronto, priority 2016, dated 2020)
